Data from patent US9149038B2, “4-amino-6-(heterocyclic)picolinates and 6-amino-2-(heterocyclic)pyrimidine-4-carboxylates and their use as herbicides” (Dow AgroSciences LLC, priority 2013, dated 2015).
Where two headings read alike, the source gives them in different places.

Test system: Direct Seeded Rice and weed species
Test: Postemergence herbicidal activity in direct seeded rice, visual rating after 20-22 days and probit GR20/GR50/GR80/GR90 (Table 14)
Assay type: in vivo
Conditions: for pest or weed control at 17.5 g/ha / pest or weed control at 35 g/ha / pest or weed control at 70 g/ha: post-emergence, 504 h, postemergence; for pest or weed control at 17.5 g/ha: 17.5 g ai/ha; for pest or weed control at 35 g/ha: 35 g ai/ha; for pest or weed control at 70 g/ha: 70 g ai/ha
From the text: Herbicidal evaluations were made visually on a scale of 0 to 100 where 0 represents no activity and 100 represents complete plant death. Seeds or nutlets of the desired test plant species were planted in a soil matrix prepared by mixing a loam soil (43 percent silt, 19 percent clay, and 38 percent sand, with a pH of about 8.1 and an organic matter content of about 1.5 percent) and river sand in an 80 to 20 ratio. The soil matrix was contained in plastic pots with a surface area of 139.7 cm^2. When required to ensure good germination and healthy plants, a fungicide treatment and/or other chemical or physical treatment was applied. The plants were grown for 10-17 d in a greenhouse with an approximate 14-h photoperiod which was maintained at about 29° C. during the day and 26° C. during the night. Nutrients and water were added on a regular basis and supplemental lighting was provided with overhead metal halide 1000-Watt lamps as necessary. The plants were employed for testing when they reached the second or third true leaf stage. A weighed amount, determined by the highest rate to be tested, of each test compound was placed in 25 mL glass vials and dissolved in a volume of 97:3 v/v acetone-DMSO to obtain 12× stock solutions. […] The concentrated stock solutions were added to the spray solutions so that the final acetone and DMSO concentrations were 16.2% and 0.5%, respectively. Spray solutions were diluted to the appropriate final concentrations with the addition of 10 mL of an aqueous mixture of 1.5% (v/v) Agri-dex crop oil concentrate. The final spray solutions contained 1.25% (v/v) Agri-dex crop oil concentrate. Compound requirements are based upon a 12 mL application volume at a rate of 187 L/ha. Formulated compounds were applied to the plant material with an overhead Mandel track sprayer equipped with […] nozzles calibrated to deliver 187 L/ha over an application area of 0.503 square meters (m^2) at a spray height of 18 inches (43 cm) above average plant canopy height. Control plants were sprayed in the same manner with the solvent blank. The treated plants and control plants were placed in a greenhouse as described above and watered by sub-irrigation to prevent wash-off of the test compounds. After 20-22 days, the condition of the test plants, compared with that of the untreated plants, was determined visually and scored on a scale of 0 to 100 percent where 0 corresponds to no injury and 100 corresponds to complete kill and are presented as indicated in Table 4. By applying the well-accepted probit analysis as described by J. Berkson in Journal of the American Statistical Society, 48, 565 (1953) and by D. Finney in “Probit Analysis” Cambridge University Press (1952), herbicidal injury of a specific compound at various rates can be used to calculate GR20, GR50, GR80 and GR90 values, which are defined as growth reduction factors that correspond to the effective dose of herbicide required to provide plant growth reduction (GR) of 20 percent, 50 percent, 80 percent and 90 percent, respectively. Probit analysis was applied to data collected from multiple dose rates of individual compounds utilizing the procedures explained in the following examples. The data for some of the dose rates and analysis of all of the dose rates are captured in the following tables.

[1] = BRAPP (broadleaf signalgrass, Brachiaria platyphylla), read-out: Visual Growth Reduction (%) 21 Days After Application BRAPP
[2] = CYPDI (small-flower flatsedge, Cyperus difformis), read-out: Visual Growth Reduction (%) 21 Days After Application CYPDI
[3] = CYPES (yellow nutsedge, Cyperus esculentus), read-out: Visual Growth Reduction (%) 21 Days After Application CYPES
[4] = CYPIR (rice flatsedge, Cyperus iria), read-out: Visual Growth Reduction (%) 21 Days After Application CYPIR
[5] = DIGSA (large crabgrass, Digitaria sanguinalis), read-out: Visual Growth Reduction (%) 21 Days After Application DIGSA
[6] = ECHCG (barnyardgrass, Echinochloa crus-galli), read-out: Visual Growth Reduction (%) 21 Days After Application ECHCG
[7] = ECHCO (junglerice, Echinochloa colonum), read-out: Visual Growth Reduction (%) 21 Days After Application ECHCO
[8] = LEFCH (Chinese sprangletop, Leptochloa chinensis), read-out: Visual Growth Reduction (%) 21 Days After Application LEFCH
[9] = ORYSJ (Oryza sativa, rice crop), read-out: Visual Growth Reduction (%) 21 Days After Application ORYSJ
[10] = ORYSK (Oryza sativa, rice crop), read-out: Visual Growth Reduction (%) 21 Days After Application ORYSK
[11] = SCPJU (Japanese bulrush, Schoenoplectus juncoides Roxb.), read-out: Visual Growth Reduction (%) 21 Days After Application SCPJU
[12] = SEBEX (hemp sesbania, Sesbania exaltata), read-out: Visual Growth Reduction (%) 21 Days After Application SEBEX

Nc1cc(-c2cc3c(cc2F)OC(F)(F)O3)nc(C(=O)O)c1Cl [Compound 42]
GR50 BRAPP (BRAPP (Brachiaria platyphylla), probit analysis, dose for 50 percent growth reduction): 0.004 g ai/ha | GR80 BRAPP (BRAPP (Brachiaria platyphylla), probit analysis, dose for 80 percent growth reduction): 0.2 g ai/ha | GR90 BRAPP (BRAPP (Brachiaria platyphylla), probit analysis, dose for 90 percent growth reduction): 1 g ai/ha | GR50 CYPDI (CYPDI (Cyperus difformis), probit analysis, dose for 50 percent growth reduction): 0.004 g ai/ha | GR80 CYPDI (CYPDI (Cyperus difformis), probit analysis, dose for 80 percent growth reduction): 0.2 g ai/ha | GR90 CYPDI (CYPDI (Cyperus difformis), probit analysis, dose for 90 percent growth reduction): 1 g ai/ha | GR50 CYPES (CYPES (Cyperus esculentus), probit analysis, dose for 50 percent growth reduction): 0.4 g ai/ha | GR80 CYPES (CYPES (Cyperus esculentus), probit analysis, dose for 80 percent growth reduction): 2 g ai/ha | GR90 CYPES (CYPES (Cyperus esculentus), probit analysis, dose for 90 percent growth reduction): 5 g ai/ha | GR50 CYPIR (CYPIR (Cyperus iria), probit analysis, dose for 50 percent growth reduction): 3 g ai/ha | GR80 CYPIR (CYPIR (Cyperus iria), probit analysis, dose for 80 percent growth reduction): 5 g ai/ha | GR90 CYPIR (CYPIR (Cyperus iria), probit analysis, dose for 90 percent growth reduction): 6 g ai/ha | GR50 DIGSA (DIGSA (Digitaria sanguinalis), probit analysis, dose for 50 percent growth reduction): 0.004 g ai/ha | GR80 DIGSA (DIGSA (Digitaria sanguinalis), probit analysis, dose for 80 percent growth reduction): 0.158 g ai/ha | GR90 DIGSA (DIGSA (Digitaria sanguinalis), probit analysis, dose for 90 percent growth reduction): 1 g ai/ha | GR50 ECHCG (ECHCG (Echinochloa crus-galli), probit analysis, dose for 50 percent growth reduction): 0.0001 g ai/ha | GR80 ECHCG (ECHCG (Echinochloa crus-galli), probit analysis, dose for 80 percent growth reduction): 0.0001 g ai/ha | GR90 ECHCG (ECHCG (Echinochloa crus-galli), probit analysis, dose for 90 percent growth reduction): 0.0001 g ai/ha | GR50 ECHCO (ECHCO (Echinochloa colonum), probit analysis, dose for 50 percent growth reduction): 0.00015 g ai/ha | GR80 ECHCO (ECHCO (Echinochloa colonum), probit analysis, dose for 80 percent growth reduction): 0.0207 g ai/ha | GR90 ECHCO (ECHCO (Echinochloa colonum), probit analysis, dose for 90 percent growth reduction): 0.268 g ai/ha | GR50 LEFCH (LEFCH (Leptochloa chinensis), probit analysis, dose for 50 percent growth reduction): 4 g ai/ha | GR80 LEFCH (LEFCH (Leptochloa chinensis), probit analysis, dose for 80 percent growth reduction): 8 g ai/ha | GR90 LEFCH (LEFCH (Leptochloa chinensis), probit analysis, dose for 90 percent growth reduction): 13 g ai/ha | GR20 ORYSJ (ORYSJ (Oryza sativa, rice crop), probit analysis, dose for 20 percent growth reduction): 1 g ai/ha | GR20 ORYSK (ORYSK (Oryza sativa, rice crop), probit analysis, dose for 20 percent growth reduction): 1 g ai/ha | GR50 SCPJU (SCPJU (Schoenoplectus juncoides Roxb.), probit analysis, dose for 50 percent growth reduction): 0.0001 g ai/ha | GR80 SCPJU (SCPJU (Schoenoplectus juncoides Roxb.), probit analysis, dose for 80 percent growth reduction): 0.0001 g ai/ha | GR90 SCPJU (SCPJU (Schoenoplectus juncoides Roxb.), probit analysis, dose for 90 percent growth reduction): 0.0001 g ai/ha | GR50 SEBEX (SEBEX (Sesbania exaltata), probit analysis, dose for 50 percent growth reduction): 2 g ai/ha | GR80 SEBEX (SEBEX (Sesbania exaltata), probit analysis, dose for 80 percent growth reduction): 5 g ai/ha | GR90 SEBEX (SEBEX (Sesbania exaltata), probit analysis, dose for 90 percent growth reduction): 9 g ai/ha | pest or weed control at 17.5 g/ha [1]: 95 to 100% | pest or weed control at 35 g/ha [1]: 95 to 100% | pest or weed control at 70 g/ha [1]: 95 to 100% | pest or weed control at 17.5 g/ha [2]: 95 to 100% | pest or weed control at 35 g/ha [2]: 95 to 100% | pest or weed control at 70 g/ha [2]: 95 to 100% | pest or weed control at 17.5 g/ha [3]: 95 to 100% | pest or weed control at 35 g/ha [3]: 95 to 100% | pest or weed control at 70 g/ha [3]: 95 to 100% | pest or weed control at 17.5 g/ha [4]: 95 to 100% | pest or weed control at 35 g/ha [4]: 95 to 100% | pest or weed control at 70 g/ha [4]: 95 to 100% | pest or weed control at 17.5 g/ha [5]: 95 to 100% | pest or weed control at 35 g/ha [5]: 95 to 100% | pest or weed control at 70 g/ha [5]: 95 to 100% | pest or weed control at 17.5 g/ha [6]: 95 to 100% | pest or weed control at 35 g/ha [6]: 95 to 100% | pest or weed control at 70 g/ha [6]: 95 to 100% | pest or weed control at 17.5 g/ha [7]: 95 to 100% | pest or weed control at 35 g/ha [7]: 95 to 100% | pest or weed control at 70 g/ha [7]: 95 to 100% | pest or weed control at 17.5 g/ha [8]: 95 to 100% | pest or weed control at 35 g/ha [8]: 95 to 100% | pest or weed control at 70 g/ha [8]: 95 to 100% | pest or weed control at 17.5 g/ha [9]: 85 to 94% | pest or weed control at 35 g/ha [9]: 95 to 100% | pest or weed control at 70 g/ha [9]: 95 to 100% | pest or weed control at 17.5 g/ha [10]: 60 to 74% | pest or weed control at 35 g/ha [10]: 75 to 84% | pest or weed control at 70 g/ha [10]: 75 to 84% | pest or weed control at 17.5 g/ha [11]: 95 to 100% | pest or weed control at 35 g/ha [11]: 95 to 100% | pest or weed control at 70 g/ha [11]: 95 to 100% | pest or weed control at 17.5 g/ha [12]: 95 to 100% | pest or weed control at 35 g/ha [12]: 95 to 100% | pest or weed control at 70 g/ha [12]: 95 to 100%
